Patent US20260130395A1, “Water Dispersible Botanical Compositions” (Aquila Black Limited, priority 2021, published 2026)

Assays:
[1] = Stability of cannabinoid entourage and Vitamin E components of the powder concentrate by LCMSMS; type: physicochemical; details: powder stored at 21-25° C.
Protocol: At each time period, 0.05 g of powder was dissolved in 10 ml-15 of ethanol, diluted to fall within the analytical range, and injected into the LCMSMS for analysis.

[2] = Stability of cannabinoid compounds and Vitamin E components in Beverage 1 (AB White) by LCMSMS; type: physicochemical; details: for Stability of Plant-Derived Cannabinoid Compounds in AB White, 8° C.: AB White stored at 8° C.; for Stability of Plant-Derived Cannabinoid Compounds in AB White, 21-25° C.: AB White stored at 21-25° C.

## C=C(C)[C@@H]1CCC(C)=C[C@H]1c1c(O)cc(CCC)cc1O [CBDV, cannabidivarin]
[1]; 0 days
  Stability of Plant-Derived Cannabinoid Compounds in Powder Concentrate: 0.050 mg/g powder
[1]; 1 days
  Stability of Plant-Derived Cannabinoid Compounds in Powder Concentrate: 0.051 mg/g powder
[1]; 2 days
  Stability of Plant-Derived Cannabinoid Compounds in Powder Concentrate: 0.051 mg/g powder
[1]; 3 days
  Stability of Plant-Derived Cannabinoid Compounds in Powder Concentrate: 0.048 mg/g powder
[1]; 5 days
  Stability of Plant-Derived Cannabinoid Compounds in Powder Concentrate: 0.050 mg/g powder
[1]; 8 days
  Stability of Plant-Derived Cannabinoid Compounds in Powder Concentrate: 0.051 mg/g powder
[1]; 9 days
  Stability of Plant-Derived Cannabinoid Compounds in Powder Concentrate: 0.049 mg/g powder
[1]; 10 days
  Stability of Plant-Derived Cannabinoid Compounds in Powder Concentrate: 0.050 mg/g powder
[1]; 11 days
  Stability of Plant-Derived Cannabinoid Compounds in Powder Concentrate: 0.051 mg/g powder
[1]; 12 days
  Stability of Plant-Derived Cannabinoid Compounds in Powder Concentrate: 0.051 mg/g powder
[1]; 15 days
  Stability of Plant-Derived Cannabinoid Compounds in Powder Concentrate: 0.050 mg/g powder
[1]; 16 days
  Stability of Plant-Derived Cannabinoid Compounds in Powder Concentrate: 0.049 mg/g powder
[1]; 17 days
  Stability of Plant-Derived Cannabinoid Compounds in Powder Concentrate: 0.051 mg/g powder
[1]; 18 days
  Stability of Plant-Derived Cannabinoid Compounds in Powder Concentrate: 0.051 mg/g powder
[1]; 19 days
  Stability of Plant-Derived Cannabinoid Compounds in Powder Concentrate: 0.048 mg/g powder
[1]; 22 days
  Stability of Plant-Derived Cannabinoid Compounds in Powder Concentrate: 0.049 mg/g powder
[1]; 23 days
  Stability of Plant-Derived Cannabinoid Compounds in Powder Concentrate: 0.050 mg/g powder
[1]; 24 days
  Stability of Plant-Derived Cannabinoid Compounds in Powder Concentrate: 0.051 mg/g powder
[1]; 25 days
  Stability of Plant-Derived Cannabinoid Compounds in Powder Concentrate: 0.052 mg/g powder
[1]; 26 days
  Stability of Plant-Derived Cannabinoid Compounds in Powder Concentrate: 0.050 mg/g powder
[1]; 29 days
  Stability of Plant-Derived Cannabinoid Compounds in Powder Concentrate: 0.049 mg/g powder
[1]; 30 days
  Stability of Plant-Derived Cannabinoid Compounds in Powder Concentrate: 0.051 mg/g powder
[1]; 60 days
  Stability of Plant-Derived Cannabinoid Compounds in Powder Concentrate: 0.050 mg/g powder
[1]; 90 days
  Stability of Plant-Derived Cannabinoid Compounds in Powder Concentrate: 0.050 mg/g powder
[1]; 120 days
  Stability of Plant-Derived Cannabinoid Compounds in Powder Concentrate: 0.050 mg/g powder
[1]; 150 days
  Stability of Plant-Derived Cannabinoid Compounds in Powder Concentrate: 0.051 mg/g powder
[1]; 180 days
  Stability of Plant-Derived Cannabinoid Compounds in Powder Concentrate: 0.050 mg/g powder
[1]; 210 days
  Stability of Plant-Derived Cannabinoid Compounds in Powder Concentrate: 0.049 mg/g powder
[1]; 240 days
  Stability of Plant-Derived Cannabinoid Compounds in Powder Concentrate: 0.052 mg/g powder
[1]; 270 days
  Stability of Plant-Derived Cannabinoid Compounds in Powder Concentrate: 0.051 mg/g powder
[1]; 300 days
  Stability of Plant-Derived Cannabinoid Compounds in Powder Concentrate: 0.049 mg/g powder
[1]; 330 days
  Stability of Plant-Derived Cannabinoid Compounds in Powder Concentrate: 0.052 mg/g powder
[1]; 360 days
  Stability of Plant-Derived Cannabinoid Compounds in Powder Concentrate: 0.050 mg/g powder
[1]; 390 days
  Stability of Plant-Derived Cannabinoid Compounds in Powder Concentrate: 0.049 mg/g powder
[1]; 420 days
  Stability of Plant-Derived Cannabinoid Compounds in Powder Concentrate: 0.051 mg/g powder
[1]; 450 days
  Stability of Plant-Derived Cannabinoid Compounds in Powder Concentrate: 0.049 mg/g powder
[1]; 480 days
  Stability of Plant-Derived Cannabinoid Compounds in Powder Concentrate: 0.051 mg/g powder
[1]; 510 days
  Stability of Plant-Derived Cannabinoid Compounds in Powder Concentrate: 0.049 mg/g powder
[1]; 540 days
  Stability of Plant-Derived Cannabinoid Compounds in Powder Concentrate: 0.052 mg/g powder
[1]; 570 days
  Stability of Plant-Derived Cannabinoid Compounds in Powder Concentrate: 0.048 mg/g powder
[2]; 0 days
  Stability of Plant-Derived Cannabinoid Compounds in AB White, 8° C.: 0.150 µg/mL
  Stability of Plant-Derived Cannabinoid Compounds in AB White, 21-25° C.: 0.150 µg/mL
[2]; 1 days
  Stability of Plant-Derived Cannabinoid Compounds in AB White, 8° C.: 0.146 µg/mL
  Stability of Plant-Derived Cannabinoid Compounds in AB White, 21-25° C.: 0.149 µg/mL
[2]; 2 days
  Stability of Plant-Derived Cannabinoid Compounds in AB White, 8° C.: 0.147 µg/mL
  Stability of Plant-Derived Cannabinoid Compounds in AB White, 21-25° C.: 0.148 µg/mL
[2]; 3 days
  Stability of Plant-Derived Cannabinoid Compounds in AB White, 8° C.: 0.146 µg/mL
  Stability of Plant-Derived Cannabinoid Compounds in AB White, 21-25° C.: 0.149 µg/mL
[2]; 5 days
  Stability of Plant-Derived Cannabinoid Compounds in AB White, 8° C.: 0.147 µg/mL
  Stability of Plant-Derived Cannabinoid Compounds in AB White, 21-25° C.: 0.144 µg/mL
[2]; 8 days
  Stability of Plant-Derived Cannabinoid Compounds in AB White, 8° C.: 0.148 µg/mL
  Stability of Plant-Derived Cannabinoid Compounds in AB White, 21-25° C.: 0.145 µg/mL
[2]; 9 days
  Stability of Plant-Derived Cannabinoid Compounds in AB White, 8° C.: 0.146 µg/mL
  Stability of Plant-Derived Cannabinoid Compounds in AB White, 21-25° C.: 0.148 µg/mL
[2]; 10 days
  Stability of Plant-Derived Cannabinoid Compounds in AB White, 8° C.: 0.148 µg/mL
  Stability of Plant-Derived Cannabinoid Compounds in AB White, 21-25° C.: 0.147 µg/mL
[2]; 11 days
  Stability of Plant-Derived Cannabinoid Compounds in AB White, 8° C.: 0.150 µg/mL
  Stability of Plant-Derived Cannabinoid Compounds in AB White, 21-25° C.: 0.150 µg/mL
[2]; 12 days
  Stability of Plant-Derived Cannabinoid Compounds in AB White, 8° C.: 0.150 µg/mL
  Stability of Plant-Derived Cannabinoid Compounds in AB White, 21-25° C.: 0.152 µg/mL
[2]; 15 days
  Stability of Plant-Derived Cannabinoid Compounds in AB White, 8° C.: 0.150 µg/mL
  Stability of Plant-Derived Cannabinoid Compounds in AB White, 21-25° C.: 0.151 µg/mL
[2]; 16 days
  Stability of Plant-Derived Cannabinoid Compounds in AB White, 8° C.: 0.148 µg/mL
  Stability of Plant-Derived Cannabinoid Compounds in AB White, 21-25° C.: 0.145 µg/mL
[2]; 17 days
  Stability of Plant-Derived Cannabinoid Compounds in AB White, 8° C.: 0.146 µg/mL
  Stability of Plant-Derived Cannabinoid Compounds in AB White, 21-25° C.: 0.150 µg/mL
[2]; 18 days
  Stability of Plant-Derived Cannabinoid Compounds in AB White, 8° C.: 0.146 µg/mL
  Stability of Plant-Derived Cannabinoid Compounds in AB White, 21-25° C.: 0.151 µg/mL
[2]; 19 days
  Stability of Plant-Derived Cannabinoid Compounds in AB White, 8° C.: 0.149 µg/mL
  Stability of Plant-Derived Cannabinoid Compounds in AB White, 21-25° C.: 0.148 µg/mL
[2]; 22 days
  Stability of Plant-Derived Cannabinoid Compounds in AB White, 8° C.: 0.149 µg/mL
  Stability of Plant-Derived Cannabinoid Compounds in AB White, 21-25° C.: 0.148 µg/mL
[2]; 23 days
  Stability of Plant-Derived Cannabinoid Compounds in AB White, 8° C.: 0.149 µg/mL
  Stability of Plant-Derived Cannabinoid Compounds in AB White, 21-25° C.: 0.148 µg/mL
[2]; 24 days
  Stability of Plant-Derived Cannabinoid Compounds in AB White, 8° C.: 0.147 µg/mL
  Stability of Plant-Derived Cannabinoid Compounds in AB White, 21-25° C.: 0.145 µg/mL
[2]; 25 days
  Stability of Plant-Derived Cannabinoid Compounds in AB White, 8° C.: 0.149 µg/mL
  Stability of Plant-Derived Cannabinoid Compounds in AB White, 21-25° C.: 0.145 µg/mL
[2]; 26 days
  Stability of Plant-Derived Cannabinoid Compounds in AB White, 8° C.: 0.152 µg/mL
  Stability of Plant-Derived Cannabinoid Compounds in AB White, 21-25° C.: 0.149 µg/mL
[2]; 29 days
  Stability of Plant-Derived Cannabinoid Compounds in AB White, 8° C.: 0.151 µg/mL
  Stability of Plant-Derived Cannabinoid Compounds in AB White, 21-25° C.: 0.147 µg/mL
[2]; 30 days
  Stability of Plant-Derived Cannabinoid Compounds in AB White, 8° C.: 0.148 µg/mL
  Stability of Plant-Derived Cannabinoid Compounds in AB White, 21-25° C.: 0.151 µg/mL
[2]; 60 days
  Stability of Plant-Derived Cannabinoid Compounds in AB White, 8° C.: 0.143 µg/mL
  Stability of Plant-Derived Cannabinoid Compounds in AB White, 21-25° C.: 0.149 µg/mL
[2]; 90 days
  Stability of Plant-Derived Cannabinoid Compounds in AB White, 8° C.: 0.146 µg/mL
  Stability of Plant-Derived Cannabinoid Compounds in AB White, 21-25° C.: 0.143 µg/mL
[2]; 120 days
  Stability of Plant-Derived Cannabinoid Compounds in AB White, 8° C.: 0.144 µg/mL
  Stability of Plant-Derived Cannabinoid Compounds in AB White, 21-25° C.: 0.141 µg/mL
[2]; 150 days
  Stability of Plant-Derived Cannabinoid Compounds in AB White, 8° C.: 0.150 µg/mL
  Stability of Plant-Derived Cannabinoid Compounds in AB White, 21-25° C.: 0.146 µg/mL
[2]; 180 days
  Stability of Plant-Derived Cannabinoid Compounds in AB White, 8° C.: 0.150 µg/mL
  Stability of Plant-Derived Cannabinoid Compounds in AB White, 21-25° C.: 0.141 µg/mL
[2]; 210 days
  Stability of Plant-Derived Cannabinoid Compounds in AB White, 8° C.: 0.147 µg/mL
  Stability of Plant-Derived Cannabinoid Compounds in AB White, 21-25° C.: 0.142 µg/mL
[2]; 240 days
  Stability of Plant-Derived Cannabinoid Compounds in AB White, 8° C.: 0.145 µg/mL
  Stability of Plant-Derived Cannabinoid Compounds in AB White, 21-25° C.: 0.145 µg/mL
[2]; 270 days
  Stability of Plant-Derived Cannabinoid Compounds in AB White, 8° C.: 0.143 µg/mL
  Stability of Plant-Derived Cannabinoid Compounds in AB White, 21-25° C.: 0.148 µg/mL
[2]; 300 days
  Stability of Plant-Derived Cannabinoid Compounds in AB White, 8° C.: 0.143 µg/mL
  Stability of Plant-Derived Cannabinoid Compounds in AB White, 21-25° C.: 0.142 µg/mL
[2]; 330 days
  Stability of Plant-Derived Cannabinoid Compounds in AB White, 8° C.: 0.146 µg/mL
  Stability of Plant-Derived Cannabinoid Compounds in AB White, 21-25° C.: 0.144 µg/mL
[2]; 360 days
  Stability of Plant-Derived Cannabinoid Compounds in AB White, 8° C.: 0.145 µg/mL
  Stability of Plant-Derived Cannabinoid Compounds in AB White, 21-25° C.: 0.146 µg/mL
[2]; 390 days
  Stability of Plant-Derived Cannabinoid Compounds in AB White, 8° C.: 0.143 µg/mL
  Stability of Plant-Derived Cannabinoid Compounds in AB White, 21-25° C.: 0.146 µg/mL
[2]; 420 days
  Stability of Plant-Derived Cannabinoid Compounds in AB White, 8° C.: 0.144 µg/mL
  Stability of Plant-Derived Cannabinoid Compounds in AB White, 21-25° C.: 0.143 µg/mL
[2]; 450 days
  Stability of Plant-Derived Cannabinoid Compounds in AB White, 8° C.: 0.145 µg/mL
  Stability of Plant-Derived Cannabinoid Compounds in AB White, 21-25° C.: 0.144 µg/mL
[2]; 480 days
  Stability of Plant-Derived Cannabinoid Compounds in AB White, 8° C.: 0.143 µg/mL
  Stability of Plant-Derived Cannabinoid Compounds in AB White, 21-25° C.: 0.143 µg/mL
[2]; 510 days
  Stability of Plant-Derived Cannabinoid Compounds in AB White, 8° C.: 0.138 µg/mL
  Stability of Plant-Derived Cannabinoid Compounds in AB White, 21-25° C.: 0.139 µg/mL
[2]; 540 days
  Stability of Plant-Derived Cannabinoid Compounds in AB White, 8° C.: 0.139 µg/mL
  Stability of Plant-Derived Cannabinoid Compounds in AB White, 21-25° C.: 0.140 µg/mL
[2]; 570 days
  Stability of Plant-Derived Cannabinoid Compounds in AB White, 8° C.: 0.138 µg/mL
  Stability of Plant-Derived Cannabinoid Compounds in AB White, 21-25° C.: 0.138 µg/mL
